According to patent publication US20250230171A1 (MOMA Therapeutics, Inc., priority 2023, published 2025):
Read-outs that look alike come from different tables or passages of the source.

Experiments:
[1] = tested on: DLD1 BRCA2 (−/−) cells; experiment: 7-day cell viability assay (CellTiter-Glo), DLD1 BRCA2 (−/−); format: cell-based, human; conditions: n=2, read-out: Viability IC50 (uM) DLD1 BRCA2 null
Outline: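 7-day growth assay in DLD1 cells with or without BRCA2; seeding densities chosen to keep log-linear growth. Compound: 10 uM top, 3-fold, 9 points. Endpoint: CTG ATP luminescence at RT.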

[2] = target: biotinylated Avi-POLθ[2-894] (Homo sapiens (Human), UniProt O75417); experiment: POLθ ATPase assay (ADP-Glo); conditions: n=2, read-out: Biochemical ATPase ADPGlo IC50
biotinylated Avi-POLθ[2-894], sequence (O75417 2-894): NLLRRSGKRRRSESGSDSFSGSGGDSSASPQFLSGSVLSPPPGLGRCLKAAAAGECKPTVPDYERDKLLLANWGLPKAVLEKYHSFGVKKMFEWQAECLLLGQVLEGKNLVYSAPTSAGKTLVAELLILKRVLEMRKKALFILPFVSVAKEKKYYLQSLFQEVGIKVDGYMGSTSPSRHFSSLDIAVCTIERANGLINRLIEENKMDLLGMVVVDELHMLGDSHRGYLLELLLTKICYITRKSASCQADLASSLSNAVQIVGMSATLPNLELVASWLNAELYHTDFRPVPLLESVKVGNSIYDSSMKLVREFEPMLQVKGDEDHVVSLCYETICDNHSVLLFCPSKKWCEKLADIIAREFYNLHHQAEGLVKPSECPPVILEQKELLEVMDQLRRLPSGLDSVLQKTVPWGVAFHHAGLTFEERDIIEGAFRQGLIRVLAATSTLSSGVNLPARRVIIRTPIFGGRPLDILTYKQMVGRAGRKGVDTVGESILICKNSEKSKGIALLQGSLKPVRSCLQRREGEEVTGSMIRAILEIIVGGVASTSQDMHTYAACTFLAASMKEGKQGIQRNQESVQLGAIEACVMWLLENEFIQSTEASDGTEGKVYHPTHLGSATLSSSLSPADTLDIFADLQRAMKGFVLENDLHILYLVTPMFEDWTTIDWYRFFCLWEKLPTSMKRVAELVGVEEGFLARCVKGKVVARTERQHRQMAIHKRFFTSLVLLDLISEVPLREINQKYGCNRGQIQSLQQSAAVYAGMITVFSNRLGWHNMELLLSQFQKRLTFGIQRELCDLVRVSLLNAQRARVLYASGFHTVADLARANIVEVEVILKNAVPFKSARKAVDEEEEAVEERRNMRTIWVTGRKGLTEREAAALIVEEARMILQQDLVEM

[3] = tested on: DLD1 WT cells; experiment: 7-day cell viability assay (CellTiter-Glo), DLD1 parental (WT); format: cell-based, human; conditions: n=2
[4] = Homo sapiens, DLD-1, 168 h, 7-day viability
[5] = Homo sapiens, DLD-1, 168 h, 7-day CellTiter-Glo

| Compound | IC50 [1, 4] [µM] | IC50 [2] [nM] | IC50 [3, 4] [µM] | IC50 [1, 5] [µM] | IC50 ([2]; POLθ ATPase, ADP-Glo) [nM] | IC50 [3, 5] [µM] | IC50 ([1]; 7-day CellTiter-Glo) [µM] | IC50 ([3]; 7-day CellTiter-Glo) [µM] |
| --- | --- | --- | --- | --- | --- | --- | --- | --- |
| COc1cnc(Cl)cc1-c1cc(C)ncc1C(=O)Nc1nc2c(s1)CN(C(=O)c1cccc3ccnn13)C2 | 0.001 to 0.1 | 1 to 15 | ≥ 10 |  |  |  |  |  |
| COc1cnc(Cl)cc1-c1cc(C)ncc1C(=O)Nc1nc2c(s1)CN(C(=O)c1cc(C)n(C)n1)C2 [Example 17, 2′-chloro-N-(5-(1,5-dimethyl-1H-pyrazole-3-carbonyl)-5,6-dihydro-4H-pyrrolo[3,4-d]thiazol-2-yl)-5′-methoxy-6-methyl-[4,4′-bipyridine]-3-carboxamide] | 0.001 to 0.1 | 1 to 15 | 0.001 to 0.5 |  |  |  |  |  |
| COc1cnc(Cl)cc1-c1cc(C)ncc1C(=O)Nc1nc2c(s1)CN(C(=O)c1nn(C)c3c1CCC3)C2 [Example 47, 2′-chloro-5′-methoxy-6-methyl-N-(5-(1-methyl-1,4,5,6-tetrahydrocyclopenta[c]pyrazole-3-carbonyl)-5,6-dihydro-4H-pyrrolo[3,4-d]thiazol-2-yl)-[4,4′-bipyridine]-3-carboxamide] | 0.001 to 0.1 | 1 to 15 | 5 to 10 |  |  |  |  |  |
| COc1ccc(C#N)cc1-c1cc(C)ncc1C(=O)Nc1nc2c(s1)CN(S(=O)(=O)C1CC1)C2 | ≥ 2 | 15 to 50 | ≥ 10 |  |  |  |  |  |
| COc1cnc(Cl)cc1-c1cc(C)ncc1C(=O)Nc1nc2c(s1)CN(C(=O)c1cccn3nccc13)C2 [Example 424] |  |  |  | 0.001 to 0.1 | 1 to 15 | ≥ 10 |  |  |
| COc1ccc(C#N)cc1-c1cc(C)ncc1C(=O)Nc1nc2c(s1)CN(S(=O)(=O)N1CCCCC1)C2 | 0.5 to 2 | 1 to 15 | ≥ 10 |  |  |  |  |  |
| COc1cnc(Cl)cc1-c1cc(C)ncc1C(=O)Nc1nc2c(s1)CN(C(=O)c1ccc(C(F)(F)F)nc1OC)C2 [Example 15, 2′-chloro-5′-methoxy-N-(5-(2-methoxy-6-(trifluoromethyl)nicotinoyl)-5,6-dihydro-4H-pyrrolo[3,4-d]thiazol-2-yl)-6-methyl-[4,4′-bipyridine]-3-carboxamide] | 0.001 to 0.1 | 1 to 15 | 5 to 10 |  |  |  |  |  |
| COc1cnc(Cl)cc1-c1cc(C)ncc1C(=O)Nc1nc2c(s1)CN(C(=O)C1CC3(CC(OC)C3)C1)C2 (stereo not drawn) [Example 140] | 0.001 to 0.1 | 1 to 15 | 5 to 10 |  |  |  |  |  |
| COc1cnc(Cl)cc1-c1cc(C)ncc1C(=O)Nc1nc2c(s1)CN(C(=O)c1cncc(Cl)c1)C2 [Example 28, 2′-chloro-N-(5-(5-chloronicotinoyl)-5,6-dihydro-4H-pyrrolo[3,4-d]thiazol-2-yl)-5′-methoxy-6-methyl-[4,4′-bipyridine]-3-carboxamide] | 0.001 to 0.1 | 1 to 15 | 0.5 to 2 |  |  |  |  |  |
| COc1cnc(Cl)cc1-c1cc(C)ncc1C(=O)Nc1nc2c(s1)CN(C(=O)c1cnc(C(F)F)nc1)C2 |  |  |  | 0.001 to 0.1 | 1 to 15 | ≥ 10 |  |  |
| COc1cnc(Cl)cc1-c1cc(C)ncc1C(=O)Nc1nc2c(s1)CN(C(=O)c1ccc(C(F)(F)F)nn1)C2 [Example 14, 2′-chloro-5′-methoxy-6-methyl-N-(5-(6-(trifluoromethyl)pyridazine-3-carbonyl)-5,6-dihydro-4H-pyrrolo[3,4-d]thiazol-2-yl)-[4,4′-bipyridine]-3-carboxamide] | 0.001 to 0.1 | 1 to 15 | ≥ 10 |  |  |  |  |  |
| COc1ccc(C#N)cc1-c1cc(C)ncc1C(=O)Nc1nc2c(s1)CN(C(=O)c1cccc(OC)c1Cl)C2 |  |  |  | 0.001 to 0.1 | 1 to 15 | ≥ 10 |  |  |
| COc1cnc(Cl)cc1-c1cc(C)ncc1C(=O)Nc1nc2c(s1)CN(C(=O)c1cnc(OC)c(Cl)c1)C2 |  |  |  | 0.001 to 0.1 | 1 to 15 | 5 to 10 |  |  |
| COc1cnc(Cl)cc1-c1cc(C)ncc1C(=O)Nc1nc2c(s1)CN(C(=O)c1c(C(F)F)nn(C)c1Cl)C2 [Example 89, 2′-chloro-N-(5-(5-chloro-3-(difluoromethyl)-1-methyl-1H-pyrazole-4-carbonyl)-5,6-dihydro-4H-pyrrolo[3,4-d]thiazol-2-yl)-5′-methoxy-6-methyl-[4,4′-bipyridine]-3-carboxamide] | 0.001 to 0.1 | 1 to 15 | ≥ 10 |  |  |  |  |  |
| COc1ccc(C#N)cc1-c1cc(C)ncc1C(=O)Nc1nc2c(s1)CN(S(=O)(=O)N1CCCC1)C2 | 0.5 to 2 | 1 to 15 | ≥ 10 |  |  |  |  |  |
| COc1cnc(Cl)cc1-c1cc(C)ncc1C(=O)Nc1nc2c(s1)CN(C(=O)c1ncc(C(F)(F)F)cn1)C2 [Example 37, 2′-chloro-5′-methoxy-6-methyl-N-(5-(5-(trifluoromethyl)pyrimidine-2-carbonyl)-5,6-dihydro-4H-pyrrolo[3,4-d]thiazol-2-yl)-[4,4′-bipyridine]-3-carboxamide] | 0.001 to 0.1 | 1 to 15 | ≥ 10 |  |  |  |  |  |
| COc1ccccc1-c1cc(C)ncc1C(=O)Nc1nc2c(s1)CN(C(=O)OC(C)(C)C)C2 [Example 314] | 0.5 to 2 | 50 to 150 | 2 to 5 |  |  |  |  |  |
| COc1cc(Cl)cc(C(=O)N2Cc3nc(NC(=O)c4cnc(C)cc4-c4cc(Cl)ncc4OC)sc3C2)n1 |  |  |  | 0.001 to 0.1 | 1 to 15 | ≥ 10 |  |  |
| COc1ccc(C#N)cc1-c1cc(C)ncc1C(=O)Nc1nc2c(s1)CN(C(=O)c1cccnc1OC)C2 (racemic) [Example 127] | 0.001 to 0.1 | 1 to 15 | ≥ 10 |  |  |  |  |  |
| COc1ccc(C#N)cc1-c1cc(C)ncc1C(=O)Nc1nc2c(s1)CN(C(=O)c1ccncc1C)C2 | ≥ 2 | 1 to 15 | ≥ 10 |  |  |  |  |  |
| COc1cnc(C(F)F)c(C(=O)N2Cc3nc(NC(=O)c4cnc(C)cc4-c4cc(Cl)ncc4OC)sc3C2)n1 [Example 503, 2′-Chloro-N-(5-(3-(difluoromethyl)-6-methoxypyrazine-2-carbonyl)-5,6-dihydro-4H-pyrrolo[3,4-d]thiazol-2-yl)-5′-methoxy-6-methyl-[4,4′-bipyridine]-3-carboxamdie] |  |  |  |  | 1 to 15 |  | 0.001 to 0.1 | ≥ 10 |
| COc1cnc(Cl)cc1-c1cc(C)ncc1C(=O)Nc1nc2c(s1)CN(C(=O)c1cccc(C(F)F)n1)C2 [Example 18, 2′-chloro-N-(5-(6-(difluoromethyl)picolinoyl)-5,6-dihydro-4H-pyrrolo[3,4-d]thiazol-2-yl)-5′-methoxy-6-methyl-[4,4′-bipyridine]-3-carboxamide] | 0.001 to 0.1 | 1 to 15 | 5 to 10 |  |  |  |  |  |
| COc1ccc(C#N)cc1-c1cc(C)ncc1C(=O)Nc1nc2c(s1)CN(C(=O)c1ccc(C(F)F)cn1)C2 [Example 122] | 0.001 to 0.1 | 1 to 15 | 5 to 10 |  |  |  |  |  |
| COc1cnc(Cl)cc1-c1cc(C)ncc1C(=O)Nc1nc2c(s1)CN(C(=O)c1cnc(C(F)F)cn1)C2 [Example 40, 2′-chloro-N-(5-(5-(difluoromethyl)pyrazine-2-carbonyl)-5,6-dihydro-4H-pyrrolo[3,4-d]thiazol-2-yl)-5′-methoxy-6-methyl-[4,4′-bipyridine]-3-carboxamide] | 0.001 to 0.1 | 1 to 15 | 5 to 10 |  |  |  |  |  |
| COc1cnc(Cl)cc1-c1cc(C)ncc1C(=O)Nc1nc2c(s1)CN(C(=O)c1ncc(C(F)(F)F)cc1Cl)C2 [Example 16, 2′-chloro-N-(5-(3-chloro-5-(trifluoromethyl)picolinoyl)-5,6-dihydro-4H-pyrrolo[3,4-d]thiazol-2-yl)-5′-methoxy-6-methyl-[4,4′-bipyridine]-3-carboxamide] | 0.001 to 0.1 | 1 to 15 | ≥ 10 |  |  |  |  |  |
| COc1cnc(Cl)cc1-c1cc(C)ncc1C(=O)Nc1nc2c(s1)CN(C(=O)c1cnn(C)c1C(F)(F)F)C2 [Example 84, 2′-chloro-5′-methoxy-6-methyl-N-(5-(1-methyl-5-(trifluoromethyl)-1H-pyrazole-4-carbonyl)-5,6-dihydro-4H-pyrrolo[3,4-d]thiazol-2-yl)-[4,4′-bipyridine]-3-carboxamide] | 0.001 to 0.1 | 1 to 15 | ≥ 10 |  |  |  |  |  |
| COc1ccc(C#N)cc1-c1cc(C)ncc1C(=O)Nc1nc2c(s1)CN(S(=O)(=O)NC(C)(C)C)C2 | ≥ 2 | 1 to 15 | ≥ 10 |  |  |  |  |  |
| COc1cnc(Cl)cc1-c1cc(C)ncc1C(=O)Nc1nc2c(s1)CN(C(=O)c1c(OC)cnn1C)C2 [Example 146] | 0.001 to 0.1 | 1 to 15 | ≥ 10 |  |  |  |  |  |
| COc1cccc(C(=O)N2Cc3nc(NC(=O)c4cnc(C)cc4-c4cc(Cl)ncc4OC)sc3C2)n1 |  |  |  | 0.001 to 0.1 | 1 to 15 | 2 to 5 |  |  |
